Laboratory results published in US5994041A, “Process for buffering concentrated aqueous slurries” (priority 1998, dated 1999).
“Also recorded” adds a separate entry of the source.

Assay: Electroacoustic sonic amplitude (ESA) as a function of pH
Format: physicochemical
Conditions: FD1 slurries

SMILES | intrinsic electrokinetic charge
CC1=NN(c2ccc(C(=O)O)cc2)C(=O)C1=CC=Cc1c(C)nn(-c2ccc(C(=O)O)cc2)c1O [FD1] | negative

Same assay, conditions: FD1 versus FD2

SMILES | lowest apparent pKa compared with FD2
CC1=NN(c2ccc(C(=O)O)cc2)C(=O)C1=CC=Cc1c(C)nn(-c2ccc(C(=O)O)cc2)c1O [FD1] | three pH units lower than that observed for FD2

Same assay, conditions: above pH 5, FIG. 2

SMILES | solubility of the dye with increasing pH
CC1=NN(c2ccc(C(=O)O)cc2)C(=O)C1=CC=Cc1c(C)nn(-c2ccc(C(=O)O)cc2)c1O [FD1] | marked increased solubility

Assay: not given
Conditions: 18° C.; cited from earlier work

SMILES | pKa
O=S(=O)(O)CCCNCCNCCCS(=O)(=O)O [N,N'-Bis(3-sulphopropyl) ethylenediamine] | 6.65

Same assay, conditions: 20° C.; cited from earlier work

SMILES | pKa | pKa2
Cc1ccc(NS(=O)(=O)c2ccccc2)cc1 [p-CH3 --C6 H4 --NHSO2 --C6 H5] | 8.64 | –
NS(=O)(=O)c1ccc(Cl)cc1 [p-Cl--C6 H4 --SO2 NH2] | 9.77 | –
O=C(O)c1ccc(S(=O)(=O)Nc2ccccc2)cc1 [p-CO2 H--C6 H4 --SO2 NH--C6 H5] | – | 7.75
NS(=O)(=O)c1ccc([N+](=O)[O-])cc1 [p-NO2 --C6 H4 --SO2 NH2] | 9.14 | –
COc1ccc(NS(=O)(=O)c2ccccc2)cc1 [p-CH3 O--C6 H4 --NHSO2 --C6 H5] | 8.70 | –
CC(=O)c1ccc(S(=O)(=O)Nc2ccccc2)cc1 [p-COCH3 --C6 H4 --SO2 NH--C6 H5] | 6.94 | –
O=S(=O)(Nc1ccccc1)c1ccccc1 [C6 H5 --SO2 NH--C6 H5] | 8.31 | –

Same assay, conditions: 25° C.; cited from earlier work

SMILES | pKa | pKa1 | pKa2
Cc1ccc(C(=O)NO)cc1 [p-CH3 --C6 H4 --CONHOH] | 8.99 | – | –
O=C(O)/C=C(\CC(=O)O)C(=O)O [trans-Aconitic acid] | – | 2.80 | 4.46
O=C(O)CNC(=O)c1ccccc1 [Hippuric acid] | 3.64 | – | –
O=C1CS(=O)(=O)NC(=O)N1 [drawing 5] | 11.00 | – | –
O=C1CC(=O)NC(=O)N1 [Barbituric acid] | 4.04 | – | –
CS(=O)(=O)NS(C)(=O)=O [CH3 SO2 NHSO2 CH3] | 1.36 | – | –
O=S(=O)(Nc1ccc(Cl)cc1C(F)(F)F)C(F)(F)F [2-CF3-4-Cl--C6 H3 --NHSO2 CF3] | 2.59 | – | –
O=[N+]([O-])c1cccc(S(=O)(=O)NO)c1 [m-NO2 --C6 H4 --SO2 NHOH] | 8.60 | – | –
O=C(c1ccccc1)c1cccc(NS(=O)(=O)CF)c1 [m-C6 H5 CO--C6 H4 --NHSO2 CFH2] | 6.77 | – | –
O=C1CS(=O)(=O)NC(=O)N1 [drawing 3] | 2.88 | – | –
CNS(C)(=O)=O [CH3 SO2 NHCH3] | 11.79 | – | –
CCN(CC)CCN(CC)CC [Tetraethylethylenediamine] | – | – | 5.89
O=S(=O)(NO)c1ccccc1 [C6 H5 --SO2 NHOH] | 9.34 | – | –
O=C(NO)c1cccc([N+](=O)[O-])c1 [m-NO2 --C6 H4 --CONHOH] | 8.20 | – | –
NS(=O)(=O)c1cccc([N+](=O)[O-])c1 [m-NO2 --C6 H4 --SO2 NH2] | 9.40 | – | –
OCCN(CCO)CCN(CCO)CCO [Tetrakis-(2-hydroxyethyl) ethylenediamine] | – | – | 4.5
Cc1c[nH]cn1 [4-Methylimidazole] | 7.67 | – | –
O=C(O)C(Cl)(Cl)Cl [Trichloroacetic acid] | 0.66 | – | –
O=C(c1ccccc1)c1ccc(NS(=O)(=O)C(F)(F)F)cc1 [p-C6 H5 CO--C6 H4 --NHSO2 CF3] | 3.22 | – | –
O=S1(=O)CCCN1 | 11.39 | – | –
O=S(=O)(Nc1ccc(Cl)cc1Cl)C(F)(F)F [2,4-dichloro-C6 H3 --NHSO2 CF3] | 2.96 | – | –
c1ccc2ncccc2c1 [Quinoline] | 5.00 | – | –
CCS(=O)(=O)NC [CH3 CH2 SO2 NHCH3] | 11.84 | – | –
O=c1[nH]c(=O)c2[nH]c(=O)[nH]c2[nH]1 [Uric acid] | 5.83 | – | –
O=C(c1ccccc1)c1cccc(NS(=O)(=O)C(F)(F)F)c1 [m-C6 H5 CO--C6 H4 --NHSO2 CF3] | 3.50 | – | –
CC(=O)NS(=O)(=O)c1ccccc1 [C6 H5 --SO2 NHCOCH3] | 4.72 | – | –
NNS(=O)(=O)c1ccc(Br)cc1 [p-Br--C6 H4 --SO2 NHNH2] | 10.36 | – | –
O=P(O)(O)OC(CO)CO [Glycerol-2-phosphoric acid] | – | – | 6.65

SMILES | pKa | pKa1 | pKa2
CCc1ccc(NS(=O)(=O)C(F)(F)F)cc1 [p-CH3 CH2 --C6 H4 --NHSO2 CF3] | 4.82 | – | –
O=S(=O)(Nc1ccccc1)C(F)F [C6 H5 --NHSO2 CF2 H] | 6.19 | – | –
NS(=O)(=O)CF [NH2 SO2 CFH2] | 9.32 | – | –
CC(=O)NS(=O)(=O)c1ccc(C)cc1 [p-CH3 --C6 H4 --SO2 NHCOCH3] | 4.92 | – | –
CC(=O)NS(=O)(=O)Nc1cccc([N+](=O)[O-])c1 [m-NO2 --C6 H4 --NHSO2 NHCOCH3] | 3.97 | – | –
CC(=O)c1ccc(NS(=O)(=O)C(F)(F)F)cc1 [p-CH3 CO--C6 H4 --NHSO2 CF3] | 3.29 | – | –
O=S(=O)(Nc1cccc(C(F)(F)F)c1)C(F)(F)F [3,3-CF3 --C6 H4 --NHSO2 CF3] | 3.70 | – | –
Nc1ccccc1C(=O)O [o-Aminobenzoic acid] | 2.15 | – | –
NNS(=O)(=O)c1ccccc1 [C6 H5 --SO2 NHNH2] | 10.60 | – | –
NS(=O)(=O)C(F)F [NH2 SO2 CF2 H] | 8.06 | – | –
COc1ccc(NS(=O)(=O)C(F)(F)F)cc1 [p-CH3 O--C6 H4 --NHSO2 CF3] | 4.90 | – | –
Cc1ccc(S(=O)(=O)NO)cc1 [p-CH3 --C6 H4 --SO2 NHOH] | 9.40 | – | –
CS(=O)(=O)Nc1cccc(C(=O)c2ccccc2)c1 [m-C6 H5 CO--C6 H4 --NHSO2 CH3] | 8.19 | – | –
CC(=O)NS(=O)(=O)c1ccc(Br)cc1 [p-Br--C6 H4 --SO2 NHCOCH3] | 4.52 | – | –
OCc1c[nH]cn1 [4-Hydroxylmethylimidazole] | 6.39 | – | –
Cc1ccc(S(=O)(=O)NN)cc1 [p-CH3 --C6 H4 --SO2 NHNH2] | 10.71 | – | –
Cc1cc(Cl)ccc1NS(=O)(=O)C(F)(F)F [2-CH3-4-Cl--C6 H3 --NHSO2 CF3] | 3.90 | – | –
O=C(O)c1ccccc1C(=O)O [Phthalic acid] | – | – | 5.41
Cc1ccc(N)cc1 [p-Toluidine] | 5.30 | – | –
NS(=O)(=O)c1ccc(Br)cc1 [p-Br--C6 H4 --SO2 NH2] | 9.87 | – | –
NNc1cccc([N+](=O)[O-])c1 [m-NO2 --C6 H4 --NHNH2] | 9.78 | – | –
O=C(NO)c1ccc(Br)cc1 [p-Br--C6 H4 --CONHOH] | 8.61 | – | –
O=S(=O)(Nc1ccc(F)cc1F)C(F)(F)F [2,4-difluoro-C6 H3 --NHSO2 CF3] | 3.44 | – | –
O=S(=O)(NO)c1ccc(Br)cc1 [p-Br--C6 H4 --SO2 NHOH] | 9.08 | – | –
O=S(=O)(Nc1c(Cl)cc(Cl)cc1Cl)C(F)(F)F [2,4,6-trichloro-C6 H2 --NHSO2 CF3] | 2.70 | – | –
O=C1NCCS(=O)(=O)N1 | 4.51 | – | –
CN(C)CCN [Dimethylaminoethylamine] | – | – | 6.50

Assay: not given
Conditions: Texter, Langmuir, 8, 291 (1992); cited from earlier work

SMILES | intrinsic electrokinetic charge
CC1=NN(c2ccc(C(=O)O)cc2)C(=O)C1=Cc1c(C)nn(-c2ccc(C(=O)O)cc2)c1O [FD2] | negative

Same assay, conditions: slurry in the absence of surfactant; Texter, Langmuir, 8, 291 (1992); cited from earlier work

SMILES | S-shaped ESA transition over the pH interval
CC1=NN(c2ccc(C(=O)O)cc2)C(=O)C1=Cc1c(C)nn(-c2ccc(C(=O)O)cc2)c1O [FD2] | 4-6

Assay: pH measurement of FD1 slurry on addition of buffering salt
Format: physicochemical
Conditions: 0.1 mole/L aqueous salt added to S1 slurry
Protocol: Measurements of pH were made using a Corning combination pH electrode, calibrated with VWR buffers of pH 4.0 and pH 7.0, using a Radiometer Copenhagen PHM63 pH meter. Equilibrated measurements were taken at about 24° C. while stirring the solutions or slurries.
About 97.0 g of the above described S1 slurry were placed in a 200 mL beaker upon a magnetic stirrer, and this slurry was moderately stirred using a magnetic stirring bar.
About 93.9 g of the above described S1 slurry were placed in a 200 mL beaker upon a magnetic stirrer, and was moderately stirred. […] Aliquots of 0.1 mole/L aqueous sodium citrate were added, and pH was recorded after each addition.
About 93.3 g of the above described S1 slurry were placed in a 200 mL beaker and stirred.

SMILES | effect of added buffering salt on slurry pH
CC(=O)O [sodium acetate] | increases the slurry pH to a significant extent; also recorded: significantly increases the slurry pH
O=C([O-])c1ccccc1O.[Na+] [sodium salicylate] | provides some pH control, but that the effect is less than that exhibited comparatively to the earlier examples
